According to patent US20100286092A1, “BETA-LACTAMASE INHIBITORS” (priority 2007, published 2010):

Tests used:
Conditions in all cases: in the presence of a fixed amount (8 μg/mL) of Ceftazidime; CAMHB, 16-20 hours at 37° C.
[1] = system: K. pneumoniae expressing the Class A carbapenemase KPC-2
Description: (§1) To determine the ability of test compounds to potentiate the inhibition of the growth of bacterial strains producing beta-lactamase enzymes, classic cell based screening assays were employed. Four bacteria strains producing beta-lactamase enzymes were used: K. pneumoniae expressing the Class A Extended Spectrum Beta-Lactamase (ESBL) CTX-M-15, E. coli expressing the Class A ESBL SHV-5, E. cloacae expressing the Class C P99+, and K. pneumoniae expressing the Class A carbapenemase KPC-2. In order to evaluate the ability of test compounds to inhibit beta-lactamase activity, Applicants used a modification of the broth microdilution assay. The assay was conducted in Cation Adjusted Mueller Hinton Broth (CAMHB, BD #212322, BD Diagnostic Systems, Sparks, Md.). Bacteria strains were grown for 3-5 hours in CAMBH broth. All four strains were grown in presence of 50 μg/mL ampicillin to ensure resistance is maintained. In the meantime, test compounds were diluted in DMSO to a 0.1 mg/mL stock. The compounds were added to a microtiter plate and were diluted in 2-fold serial dilutions in CAMHB in a final concentration range of 8 μg/mL to 0.015 μg/ml. An overlay of CAMHB containing a cephalosporin was added to the compounds at a final static concentration of 8 μg/ml. […] Each of these compound plates are made in quadruplicate, one for each bacteria strain. In addition to the titration of test compounds the MICs of a panel of cephalosporins is also tested to ensure the strains are behaving consistently from test to test. Once the test compound and cephalosporin are added the plates can be inoculated. Inocula are conducted according to CLSI broth microdilution method. After inoculation the plates are incubated for 16-20 hours at 37° C. then the Minimal Inhibitory Concentration (MIC) of the test compound is determined visually.
(§2) Using the methodology described above, examples of the current invention were evaluated for their ability to inhibit the growth of β-lactamase producing bacteria in the presence of a β-lactam antibiotic. […] NT=Not Tested.

[2] = system: K. pneumoniae expressing the Class A Extended Spectrum Beta-Lactamase (ESBL) CTX-M-15; assay type: cell-based
Description: as §1, §2

[3] = system: E. coli expressing the Class A ESBL SHV-5; assay type: cell-based
Description: as §1, §2

[4] = system: E. cloacae expressing the Class C P99+; assay type: cell-based
Description: as §1, §2

SMILES	MIC of example compound, K. pneumoniae KPC-2 + 8 μg/mL CAZ [1]	MIC of example compound, K. pneumoniae CTX-M-15 + 8 μg/mL CAZ [2]	MIC of example compound, E. coli SHV-5 + 8 μg/mL CAZ [3]	MIC of example compound, E. cloacae P99 AmpC + 8 μg/mL CAZ [4]
Cl.NCCOc1cccc(CC(=O)N[C@@H](Cc2cccc(C(=O)O)c2O)B(O)O)c1 [Example 4, (1R)-1-[3-(2-amino)-ethoxy-phenyl]acetylamino-1-(3-carboxy-2-hydroxy)benzyl-methylboronic acid hydrochloride]	C (C represents an MIC of <1 μg/mL)	C (C represents an MIC of <1 μg/mL)	C (C represents an MIC of <1 μg/mL)	C (C represents an MIC of <1 μg/mL)
O=C(Cc1ccccc1)N[C@@H](Cc1cccc(C(=O)O)c1O)B(O)O [Example 10]	C (C represents an MIC of <1 μg/mL)	C (C represents an MIC of <1 μg/mL)	C (C represents an MIC of <1 μg/mL)	C (C represents an MIC of <1 μg/mL)
CCCCC(=O)N[C@@H](Cc1cccc(C(=O)O)c1O)B(O)O [Example 23, (1R)-1-(pentanoylamino)-2-(2-hydroxy-3-carboxyphenyl)ethyl-1-boronic acid]	C (C represents an MIC of <1 μg/mL)	C (C represents an MIC of <1 μg/mL)	C (C represents an MIC of <1 μg/mL)	C (C represents an MIC of <1 μg/mL)
Nc1nc(CC(=O)N[C@@H](Cc2cccc(C(=O)O)c2O)B(O)O)cs1.O=CO [Example 39, (1R)-1-(2-Amino-thiazol-4-yl)-acetylamino-1-(3-carboxy-2-hydroxy)benzyl-methylboronic acid formate salt]	C (C represents an MIC of <1 μg/mL)	C (C represents an MIC of <1 μg/mL)	C (C represents an MIC of <1 μg/mL)	C (C represents an MIC of <1 μg/mL)
NCC(=O)N[C@@H](Cc1cccc(C(=O)O)c1O)B(O)O.O=CO [Example 41, (1R)-1-(2-aminoacetylamino)-2-(2-hydroxy-3-carboxyphenyl)ethyl-1-boronic acid formate salt]	C (C represents an MIC of <1 μg/mL)	A (A represents an MIC>8 μg/mL)	A (A represents an MIC>8 μg/mL)	A (A represents an MIC>8 μg/mL)
